Data on one compound can be found in BindingDB's records for doi:10.1016/s0960-894x(99)00298-x (Agrevo, 1999).

The structures appear in SMILES notation. pIC50: −log10 of the molar value.

This experiment in a line: Inhibition of Pisum sativum (pea) adenylate deaminase.

Take `O=P(O)(O)OC[C@H]1O[C@@H](c2n[nH]c3cncnc23)[C@H](O)[C@@H]1O`: the pIC50 (in general, −log10 of the IC50, conventionally taken in molar units) was 7.00.
